Positions of bridges follow the written chain, without caps; N, C: chain ends. No end group written: not given here.

For one experiment, the target named is T1, rASIC1a E362R (Rattus norvegicus, UniProt P55926, E362R).
T1 construct: expressed in transfected cells; host or cells: Xenopus laevis oocytes (cRNA injection)
T1 sequence (P55926 1-526 E362R): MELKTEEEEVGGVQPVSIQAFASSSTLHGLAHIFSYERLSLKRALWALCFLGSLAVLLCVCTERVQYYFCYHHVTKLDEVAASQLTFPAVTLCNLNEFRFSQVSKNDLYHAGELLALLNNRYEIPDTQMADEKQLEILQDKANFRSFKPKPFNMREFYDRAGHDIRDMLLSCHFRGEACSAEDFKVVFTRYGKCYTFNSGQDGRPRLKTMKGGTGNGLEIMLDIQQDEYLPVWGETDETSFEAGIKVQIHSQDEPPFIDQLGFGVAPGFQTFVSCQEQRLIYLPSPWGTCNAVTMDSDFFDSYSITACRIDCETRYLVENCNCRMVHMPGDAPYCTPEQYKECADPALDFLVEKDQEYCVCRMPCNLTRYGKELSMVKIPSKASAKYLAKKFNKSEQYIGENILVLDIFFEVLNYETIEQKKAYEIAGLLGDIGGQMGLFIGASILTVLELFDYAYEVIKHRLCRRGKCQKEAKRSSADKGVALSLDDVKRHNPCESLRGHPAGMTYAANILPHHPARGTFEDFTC
Nature of the experiment: TEVC oocytes, rASIC1a E362R mutant. The class given is cell-based. The conditions noted are these: conditioning pH 7.45, stimulating pH 6. How it is done: (§1) Two-electrode voltage-clamp (TEVC) experiments using Xenopus laevis oocytes were conducted as previously described. Briefly, oocytes were surgically removed from anaesthetised female frogs, then treated with collagenase (~ 1 mg/ml, Sigma type I) for 2 h under agitation at room temperature. cRNAs were synthesised using a mMessage mMachine T7 or SP6 transcription kit (Thermo Fisher Scientific Australia Pty Ltd, Scoresby, VIC, Australia) and injected into healthy stage V–VI oocytes at 0.2–20 ng per cell. […] Membrane currents were recorded 2–7 days after cRNA-injection under voltage-clamp at -60 mV (Axon Axoclamp 900 A, Molecular Devices, CA, USA) using two standard glass microelectrodes of 0.5–1 MΩ resistance when filled with 3 M KCl solution. […]
(§2) Specific to this work, the standard protocol was for oocytes to be conditioned at pH 7.45 and channels stimulated every 60 s using a 5 s pH 5 or 6 application, unless stated otherwise. […] Activation curves were determined by conditioning oocytes at pH 8 (Fig. 2e − g; and Fig. 5a and b) or 7.45 (Fig. 6; and Supplementary Fig. 2d and c) for 55 s and applying low pH stimuli from 7.25 to 5.0 for 5 s. Steady-state desensitisation (SSD) was determined by applying conditioning solutions of pH values from 8 to 6 for 115 s prior to stimulation by a pH drop to 5 for 5 s. […] Control pH-dependence curves were determined in the absence of any Ma-3. […]

A further experiment concerns rASIC1a N291A. Kind of experiment: TEVC oocytes, rASIC1a N291A mutant. In kind it is cell-based, rat. The conditions noted are these: concentration-response, conditioning pH 7.45, stimulating pH 6. Here is the method: as §1, §2

With “H-SLKCYQHGKVVTCHRDMKFCYHNIGMPFRNLKLILQGCSSSCSETENNKCCSTDRCNK (disulfide 4-20, 13-38, 42-50, 51-56 (inferred)) [Ma-3, mambalgin-3]”, the “decrease in Ma-3 activity relative to wild-type rASIC1a” value on rASIC1a E362R was ~ 5 fold. Further, the “effect of channel mutation on Ma-3 potency” value with rASIC1a N291A was “had no effect on potency”.
